{
  "source": "patent US9290427B2",
  "about": "“Anti-invasive compounds” (Universiteit Gent, priority 2012, dated 2016)",
  "key": {"3T3-L1 cells": {"system": "3T3-L1 cells", "experiment": "SRB test, 3T3-L1", "assay_type": "cell-based, murine", "conditions": "10 μmol·L−1, 24 h, decreasing trend, not significant", "description": "(§1) The SRB assay is used to evaluate growth effects on cells, and measures the total protein content. In this test, 5,000 cells are seeded in a cup of a 96-well plate. Upon a 24 h-attachment period, cells are treated with a certain amount of the test molecule (dissolved in DMSO). After a pre-chosen incubation time, cells are fixed with 50 μL of 50% trichloroacetic acid (2° C., 1 h). Afterward, the plate is rinsed five times with tap water, and air dried overnight.\n(§2) Next, proteins are stained with 75 μL of a 0.4% solution of SRB in AcOH (30 min). Unbound SRB is subsequently removed by washing with a 1% solution of glacial AcOH, whereupon the plate is air dried. Then, bound SRB is redissolved in 100 μL of a 10 mmol·L^−1 tris(hydroxymethyl)aminomethane (Tris) buffer (pH=10.5), after which optical density is determined at 490 nm with a spectrophotometer.\n(§3) In order to verify whether the antiproliferative effects of compound 49, witnessed in BLM and MCF-7/6 cells at high concentrations, were cell specific, additional SRB and MTT assays on a further five cell lines (HCT8-E11, TR146, FaDu, 3T3-L1 and CT5.3) were conducted (FIG. 8). The results for MCF-7/6 cells were added to facilitate comparison.\n(§4) The CT5.3 cell line consists of human myofibroblasts which were isolated from a colon tumor (Van Hoorde et al., 1999). […]"}, "MCF-7/6 cells": {"system": "MCF-7/6 cells", "experiment": "MTT test, MCF-7/6", "assay_type": "cell-based, human", "conditions": "for decrease in mitochondrial activity: FIG. 5", "description": "(§5) An MTT test provides an indication of cell viability, proliferation and activity through determination of the mitochondrial conversion of 3-(4,5-dimethylthiazol-2-yl)-2,5-diphenyltetrazolium bromide (MTT), a yellow salt, into formazan, a salt that precipitates under the form of blue crystals.\n(§6) In concreto, 5,000 cells are seeded in a cup of a 96 well-plate, treated with the desired amount of the test substance, and incubated for a chosen period of time. Next, 40 μL of a filtered (0.2 μm) 5 mg·mL^−1 solution of MTT in PBS is added to the cup. After 2 h of incubation at 37° C. in the dark, all liquid is removed. The obtained formazan salts are dissolved in 200 μL of DMSO, whereupon optical density is measured at 490 nm.\nThe effects of some chalcone-like compounds on the proliferation of MCF-7/6 cells were investigated. A commonly used method to quantify the metabolic activity of cells and thus to a certain degree cell viability—is the MTT assay. This test provides a measure of mitochondrial activity, as it assesses the reduction of 3-(4,5-dimethylthiazol-2-yl)-2,5-diphenyltetrazolium bromide (MTT), a yellow tetrazole, to the purple formazan; this transformation occurs in the mitochondria of living cells (Mosmann T., 1983).\nThus, the influence of 13 compounds on the mitochondrial activity of MCF-7/6 cells was determined at 3 different concentrations, both after 24 and 48 h of incubation. Assessment of the mitochondrial activity after 192 h of incubation, which would correspond to the duration of the CHI assay, was not possible as the degree of confluence of the cells was too high at that time point.\nThe antiproliferative effects of 4-fluoro-3′,4′,5′-trimethoxychalcone on MCF-7/6 cells were further assessed in the MTT assay upon prolonged incubation, as this would provide a higher degree of relevance to the CHI assay, which has an 8-day incubation period. As mentioned above, cell confluence was too high after 192 h; therefore, an incubation time of 144 h was considered a good compromise."}, "FaDu cells": {"system": "FaDu cells", "experiment": "SRB test, FaDu", "assay_type": "cell-based, human", "conditions": "1 or 10 μmol·L−1, 24 h", "description": "as §1, §2, §3, §4"}, "BLM melanoma cells": {"system": "BLM melanoma cells", "experiment": "MTT test, BLM", "assay_type": "cell-based", "description": "as §5, §6\nAs 4-fluoro-3′,4′,5′-trimethoxychalcone had exerted an anti-invasive activity on BLM melanoma cells in the Matrigel invasion assay, we were intrigued to verify how its effect on the viability of BLM cells would compare to that observed for the MCF-7 cell lines."}, "TR146 cells": {"system": "TR146 cells", "experiment": "MTT test, TR146", "assay_type": "cell-based, human", "description": "as §5, §6, §3\nThe CT5.3 cell line consists of human myofibroblasts which were isolated from a colon tumor (Van Hoorde et al., 1999). 3T3-L1 cells are murine fibroblasts, originating from embryo's of Swiss mice (Todaro and Green, 1963). HCT8-E11, FaDu and TR146 are human epithelial cancer cell lines. […]"}},
  "data": [
    {"compound": "COc1cc(C(=O)/C=C/c2ccc(F)cc2)cc(OC)c1OC", "note": "[Compound 49, (2E)-3-(4-Fluorophenyl)-1-(3,4,5-trimethoxyphenyl)propenone]", "values": [
      {"measurement": "change in total protein content", "setting": "3T3-L1 cells", "value": "−20", "unit": "%"},
      {"measurement": "mitochondrial activity relative to solvent control", "setting": "MCF-7/6 cells; 0.1 μmol·L−1, FIG. 6", "value": "increased significantly"},
      {"measurement": "mitochondrial activity", "setting": "MCF-7/6 cells; 1 μmol·L−1, 24 h", "value": "the same trend, but without significance"},
      {"measurement": "decrease in mitochondrial activity", "setting": "MCF-7/6 cells; 5 μmol·L−1, 24 h", "value": 35, "unit": "%"},
      {"measurement": "decrease in mitochondrial activity", "setting": "MCF-7/6 cells; 5 μmol·L−1, 48 h", "value": 25, "unit": "%"},
      {"measurement": "reduction in mitochondrial activity", "setting": "MCF-7/6 cells; 10 μmol·L−1, 24 h", "value": 40, "unit": "%"},
      {"measurement": "mitochondrial activity relative to solvent control", "setting": "MCF-7/6 cells; 100 and 10 μmol·L−1, FIG. 6 (72 and 144 h), p<0.01", "value": "significant reduction"},
      {"measurement": "reduction in mitochondrial activity", "setting": "MCF-7/6 cells; elevated concentrations 10-100 μmol·L−1, summary", "value": "~50", "unit": "%"},
      {"measurement": "total protein content versus solvent control", "setting": "FaDu cells", "value": "no significant differences"},
      {"measurement": "reduction of BLM cell viability (mitochondrial activity)", "setting": "BLM melanoma cells; 0.1 μmol·L−1, 24 h", "value": 22, "unit": "%"},
      {"measurement": "reduction of BLM cell viability (mitochondrial activity)", "setting": "BLM melanoma cells; 1 μmol·L−1, 24 h", "value": 27, "unit": "%"},
      {"measurement": "reduction in mitochondrial activity", "setting": "BLM melanoma cells; 10 μmol·L−1, 24 h", "value": 40, "unit": "%"},
      {"measurement": "reduction of BLM cell viability (mitochondrial activity)", "setting": "BLM melanoma cells; 100 μmol·L−1, 24 h", "value": 76, "unit": "%"},
      {"measurement": "increase in mitochondrial activity", "setting": "TR146 cells; 1 μmol·L−1, 24 h", "value": 7, "unit": "%"},
      {"measurement": "reduction in mitochondrial activity", "setting": "TR146 cells; 10 μmol·L−1, 24 h", "value": 30, "unit": "%"}
    ]}
  ]
}
